Test results from patent US20240398811A1, “PRC2 INHIBITORS FOR USE IN TREATING BLOOD DISORDERS” (ORIC Pharmaceuticals, Inc., priority 2021, published 2024).

What follows are molecules tested against purified human, His-tagged PRC2 complex (Homo sapiens (Human), UniProt O75530) (assay: Hot Spot HMT assay, inhibition of PRC2 enzymatic activity). Conditions: 10 nM PRC2 complex, 1 μM 3H-SAM, core histone H3, 10-point dose-response.
Assay type: biochemical
Outline: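 Methyl transfer from 1 μM tritiated SAM onto 0.05 mg/ml core histone H3, catalysed by 10 nM His/Flag-tagged human PRC2 holoenzyme, was run 1 hr at 30° C after a 20 min compound preincubation. Serial dilutions began at 1.0 μM; product captured on filters and counted.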

Chain of purified human, His-tagged PRC2 complex (O75530 whole entry): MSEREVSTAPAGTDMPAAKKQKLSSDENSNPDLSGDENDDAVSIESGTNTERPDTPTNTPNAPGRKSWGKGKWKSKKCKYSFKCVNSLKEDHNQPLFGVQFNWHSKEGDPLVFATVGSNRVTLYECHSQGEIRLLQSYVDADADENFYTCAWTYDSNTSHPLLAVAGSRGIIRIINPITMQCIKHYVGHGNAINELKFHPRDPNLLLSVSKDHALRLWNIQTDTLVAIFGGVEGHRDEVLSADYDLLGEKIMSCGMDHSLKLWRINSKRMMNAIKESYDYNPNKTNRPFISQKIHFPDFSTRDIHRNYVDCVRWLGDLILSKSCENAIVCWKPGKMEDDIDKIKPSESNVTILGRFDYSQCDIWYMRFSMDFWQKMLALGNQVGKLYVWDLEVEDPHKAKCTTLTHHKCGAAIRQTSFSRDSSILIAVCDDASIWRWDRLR
Chain of purified human, His-tagged PRC2 complex (Q15910 whole entry partner): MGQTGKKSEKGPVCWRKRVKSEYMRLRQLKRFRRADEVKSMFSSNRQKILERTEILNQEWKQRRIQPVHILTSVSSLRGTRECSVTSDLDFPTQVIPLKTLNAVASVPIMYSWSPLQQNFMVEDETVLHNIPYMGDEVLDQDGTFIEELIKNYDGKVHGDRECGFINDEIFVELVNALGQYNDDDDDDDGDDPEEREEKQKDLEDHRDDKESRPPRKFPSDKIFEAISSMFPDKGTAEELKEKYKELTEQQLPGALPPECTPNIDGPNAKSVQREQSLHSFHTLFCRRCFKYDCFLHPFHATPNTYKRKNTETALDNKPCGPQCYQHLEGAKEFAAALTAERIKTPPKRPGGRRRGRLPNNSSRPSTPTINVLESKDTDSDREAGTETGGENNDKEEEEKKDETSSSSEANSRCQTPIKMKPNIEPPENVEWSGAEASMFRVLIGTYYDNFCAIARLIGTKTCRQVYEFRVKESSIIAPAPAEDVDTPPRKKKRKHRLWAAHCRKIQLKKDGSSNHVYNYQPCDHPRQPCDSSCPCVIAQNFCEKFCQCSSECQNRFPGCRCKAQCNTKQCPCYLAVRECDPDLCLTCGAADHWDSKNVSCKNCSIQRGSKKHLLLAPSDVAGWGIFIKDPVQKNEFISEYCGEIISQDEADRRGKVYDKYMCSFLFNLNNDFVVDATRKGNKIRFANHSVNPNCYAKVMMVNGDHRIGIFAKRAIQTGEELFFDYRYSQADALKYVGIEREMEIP
Chain of purified human, His-tagged PRC2 complex (Q15022 whole entry partner): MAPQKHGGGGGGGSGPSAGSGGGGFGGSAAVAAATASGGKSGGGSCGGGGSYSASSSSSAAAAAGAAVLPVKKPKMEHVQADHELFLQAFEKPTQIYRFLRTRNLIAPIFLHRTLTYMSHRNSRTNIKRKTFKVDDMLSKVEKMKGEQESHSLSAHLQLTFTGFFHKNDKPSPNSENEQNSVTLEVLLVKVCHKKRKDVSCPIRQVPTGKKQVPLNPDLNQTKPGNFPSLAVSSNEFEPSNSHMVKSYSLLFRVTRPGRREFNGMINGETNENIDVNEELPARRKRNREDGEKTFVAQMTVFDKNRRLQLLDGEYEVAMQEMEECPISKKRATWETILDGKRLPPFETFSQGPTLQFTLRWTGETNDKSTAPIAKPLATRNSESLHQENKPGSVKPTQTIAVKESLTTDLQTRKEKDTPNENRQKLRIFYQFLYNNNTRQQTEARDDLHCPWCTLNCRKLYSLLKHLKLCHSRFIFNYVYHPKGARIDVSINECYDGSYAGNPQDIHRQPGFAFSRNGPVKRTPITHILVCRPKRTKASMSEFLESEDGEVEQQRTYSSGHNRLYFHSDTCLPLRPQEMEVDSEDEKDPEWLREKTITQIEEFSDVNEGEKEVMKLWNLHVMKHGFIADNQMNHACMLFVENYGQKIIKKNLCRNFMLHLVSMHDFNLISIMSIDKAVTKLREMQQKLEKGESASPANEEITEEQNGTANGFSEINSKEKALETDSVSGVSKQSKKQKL
Chain of purified human, His-tagged PRC2 complex (Q6ZN18 whole entry partner): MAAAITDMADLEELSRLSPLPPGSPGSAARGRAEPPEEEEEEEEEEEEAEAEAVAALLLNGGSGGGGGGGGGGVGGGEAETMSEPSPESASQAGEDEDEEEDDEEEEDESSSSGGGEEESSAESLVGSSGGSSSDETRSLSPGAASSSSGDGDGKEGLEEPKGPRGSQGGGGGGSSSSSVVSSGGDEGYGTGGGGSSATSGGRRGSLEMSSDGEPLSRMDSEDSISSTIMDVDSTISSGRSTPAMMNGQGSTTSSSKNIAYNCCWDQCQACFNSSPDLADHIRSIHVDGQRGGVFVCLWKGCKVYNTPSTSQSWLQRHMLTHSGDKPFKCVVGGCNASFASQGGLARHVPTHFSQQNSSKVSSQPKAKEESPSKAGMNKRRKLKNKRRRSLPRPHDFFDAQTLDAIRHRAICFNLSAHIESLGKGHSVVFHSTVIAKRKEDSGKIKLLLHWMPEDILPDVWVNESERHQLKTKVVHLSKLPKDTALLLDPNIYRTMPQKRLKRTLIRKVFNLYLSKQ
Chain of purified human, His-tagged PRC2 complex (Q09028 whole entry partner): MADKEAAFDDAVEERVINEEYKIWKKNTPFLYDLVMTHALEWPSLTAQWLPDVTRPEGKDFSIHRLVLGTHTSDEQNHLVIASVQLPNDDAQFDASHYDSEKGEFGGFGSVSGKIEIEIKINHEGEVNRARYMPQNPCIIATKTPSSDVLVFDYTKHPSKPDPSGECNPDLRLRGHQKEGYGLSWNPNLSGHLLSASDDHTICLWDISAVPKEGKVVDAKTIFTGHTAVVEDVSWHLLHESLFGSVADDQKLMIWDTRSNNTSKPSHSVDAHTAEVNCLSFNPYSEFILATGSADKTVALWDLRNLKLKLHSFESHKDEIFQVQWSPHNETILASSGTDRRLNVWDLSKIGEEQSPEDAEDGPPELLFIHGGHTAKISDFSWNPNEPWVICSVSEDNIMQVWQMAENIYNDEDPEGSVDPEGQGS

Row | IC50 | Compound
1 | 100 to 500 nM | CN1CCc2cc(-c3cnc(NCc4c(F)ccc5c4CCO5)n4cc(C#N)nc34)ccc2C1 [Example 159, 5-(((5-fluoro-2,3-dihydrobenzofuran-4-yl)methyl)amino)-8-(2-methyl-1,2,3,4-tetrahydroisoquinolin-6-yl)imidazo[1,2-c]pyrimidine-2-carbonitrile]
2 | < 100 nM | CN1CCCC1c1ccc(-c2cnc(NCc3c(F)ccc4c3CCO4)n3cc(C#N)nc23)cc1 (stereo not drawn) [Example 160, 5-(((5-fluoro-2,3-dihydrobenzofuran-4-yl)methyl)amino)-8-(4-(1-methylpyrrolidin-2-yl)phenyl)imidazo[1,2-c]pyrimidine-2-carbonitrile]
3 | < 100 nM | COCCOc1ccc(-c2cnc(NCc3c(F)ccc4c3CCO4)n3cc(C#N)nc23)cc1 [Example 161, 5-(((5-fluoro-2,3-dihydrobenzofuran-4-yl)methyl)amino)-8-(4-(2-methoxyethoxy)phenyl)imidazo[1,2-c]pyrimidine-2-carbonitrile]
4 | < 100 nM | N#Cc1cn2c(NCc3c(F)ccc4c3CCO4)ncc(-c3ccc(C4CCCO4)cc3)c2n1 (stereo not drawn) [Example 162, 5-(((5-fluoro-2,3-dihydrobenzofuran-4-yl)methyl)amino)-8-(4-(tetrahydrofuran-2-yl)phenyl)imidazo[1,2-c]pyrimidine-2-carbonitrile]
5 | < 100 nM | CN(C)CCc1ccc(-c2cnc(NCc3c(F)ccc4c3CCO4)n3cc(C#N)nc23)cc1 [Example 163, 8-(4-(2-(dimethylamino)ethyl)phenyl)-5-(((5-fluoro-2,3-dihydrobenzofuran-4-yl)methyl)amino)imidazo[1,2-c]pyrimidine-2-carbonitrile]
6 | < 100 nM | [2H]C([2H])(Nc1ncc(-c2ccc(CN(C)C)cc2)c2nc(C#N)cn12)c1c(F)ccc2c1CCO2 [Example 165, 8-(4-((dimethylamino)methyl)phenyl)-5-(((5-fluoro-2,3-dihydrobenzofuran-4-yl)methyl-d2)amino)imidazo[1,2-c]pyrimidine-2-carbonitrile]
7 | < 100 nM | COC(=O)c1ccc(-c2cnc(NCc3c(F)ccc4c3CCO4)n3cc(C#N)nc23)cn1 [Example 166, methyl 5-(2-cyano-5-(((5-fluoro-2,3-dihydrobenzofuran-4-yl)methyl)amino)imidazo[1,2-c]pyrimidin-8-yl)picolinate]
8 | 100 to 500 nM | COC(=O)c1ccc(-c2cnc(NCc3c(F)ccc4c3CCO4)n3cc(C#N)nc23)cc1 [Example 167, methyl 4-(2-cyano-5-(((5-fluoro-2,3-dihydrobenzofuran-4-yl)methyl)amino)imidazo[1,2-c]pyrimidin-8-yl)benzoate]
9 | < 100 nM | CN1CCc2cc(-c3cnc(NCc4c(F)ccc5c4CCO5)n4cc(C#N)nc34)ccc2C1=O [Example 168, 5-(((5-fluoro-2,3-dihydrobenzofuran-4-yl)methyl)amino)-8-(2-methyl-1-oxo-1,2,3,4-tetrahydroisoquinolin-6-yl)imidazo[1,2-c]pyrimidine-2-carbonitrile]
10 | < 100 nM | COC(=O)c1cc(-c2cnc(NCc3c(F)ccc4c3CCO4)n3cc(C#N)nc23)n(C)n1 [Example 169, methyl 5-(2-cyano-5-(((5-fluoro-2,3-dihydrobenzofuran-4-yl)methyl)amino)imidazo[1,2-c]pyrimidin-8-yl)-1-methyl-1H-pyrazole-3-carboxylate]
11 | < 100 nM | CN(C)C(=O)c1cc(-c2cnc(NCc3c(F)ccc4c3CCO4)n3cc(C#N)nc23)n(C)n1 [Example 170, 5-(2-cyano-5-(((5-fluoro-2,3-dihydrobenzofuran-4-yl)methyl)amino)imidazo[1,2-c]pyrimidin-8-yl)-N,N,1-trimethyl-1H-pyrazole-3-carboxamide]
12 | < 100 nM | CN(C)C1(c2ccc(-c3cnc(NCc4c(F)ccc5c4CCO5)n4cc(C#N)nc34)cc2)CC1 [Example 171, 8-(4-(1-(dimethylamino)cyclopropyl)phenyl)-5-(((5-fluoro-2,3-dihydrobenzofuran-4-yl)methyl)amino)imidazo[1,2-c]pyrimidine-2-carbonitrile]
13 | < 100 nM | N#Cc1cn2c(NCc3c(F)ccc4c3CCO4)ncc(-c3ccc4c(c3)CCNC4=O)c2n1 [Example 172, 5-(((5-fluoro-2,3-dihydrobenzofuran-4-yl)methyl)amino)-8-(1-oxo-1,2,3,4-tetrahydroisoquinolin-6-yl)imidazo[1,2-c]pyrimidine-2-carbonitrile]
14 | < 100 nM | [2H]C([2H])(c1ccc(-c2cnc(NCc3c(F)ccc4c3CCO4)n3cc(C#N)nc23)c(C)c1)N(C)C [Example 173, 8-(4-((dimethylamino)methyl-d2)-2-methylphenyl)-5-(((5-fluoro-2,3-dihydrobenzofuran-4-yl)methyl)amino)imidazo[1,2-c]pyrimidine-2-carbonitrile]
15 | < 100 nM | N#Cc1cn2c(NCc3c(F)ccc4c3CCO4)ncc(-c3cccc(C(=O)O)c3)c2n1 [Example 174, 3-(2-cyano-5-(((5-fluoro-2,3-dihydrobenzofuran-4-yl)methyl)amino)imidazo[1,2-c]pyrimidin-8-yl)benzoic acid]
16 | 100 to 500 nM | Cc1ccc(-c2cnc(NCc3c(F)ccc4c3CCO4)n3cc(C#N)nc23)cc1 [Example 175, 5-(((5-fluoro-2,3-dihydrobenzofuran-4-yl)methyl)amino)-8-(p-tolyl)imidazo[1,2-c]pyrimidine-2-carbonitrile]
17 | < 100 nM | Cc1c(C#N)cccc1-c1cnc(NCc2c(F)ccc3c2CCO3)n2cc(C#N)nc12 [Example 176, 8-(3-cyano-2-methylphenyl)-5-(((5-fluoro-2,3-dihydrobenzofuran-4-yl)methyl)amino)imidazo[1,2-c]pyrimidine-2-carbonitrile]
18 | 100 to 500 nM | Cc1ccc(C#N)cc1-c1cnc(NCc2c(F)ccc3c2CCO3)n2cc(C#N)nc12 [Example 177, 8-(5-cyano-2-methylphenyl)-5-(((5-fluoro-2,3-dihydrobenzofuran-4-yl)methyl)amino)imidazo[1,2-c]pyrimidine-2-carbonitrile]
19 | < 100 nM | CC(O)Cn1cc(-c2cnc(NCc3c(F)ccc4c3CCO4)n3cc(C#N)nc23)cn1 (stereo not drawn) [Example 179, 5-(((5-fluoro-2,3-dihydrobenzofuran-4-yl)methyl)amino)-8-(1-(2-hydroxypropyl)-1H-pyrazol-4-yl)imidazo[1,2-c]pyrimidine-2-carbonitrile]
20 | < 100 nM | CN(C)C(=O)c1ccc(-c2cnc(NCc3c(F)ccc4c3CCO4)n3cc(C#N)nc23)cc1 [Example 180, 4-(2-cyano-5-(((5-fluoro-2,3-dihydrobenzofuran-4-yl)methyl)amino)imidazo[1,2-c]pyrimidin-8-yl)-N,N-dimethylbenzamide]
21 | < 100 nM | N#Cc1cn2c(NCc3c(F)ccc4c3CCO4)ncc(-c3ccc(C(=O)N4CCOCC4)cc3)c2n1 [Example 181, 5-(((5-fluoro-2,3-dihydrobenzofuran-4-yl)methyl)amino)-8-(4-(morpholine-4-carbonyl)phenyl)imidazo[1,2-c]pyrimidine-2-carbonitrile]
22 | 100 to 500 nM | N#Cc1cn2c(NCc3c(F)ccc4c3CCO4)ncc(-c3cnn(CCO)c3)c2n1 [Example 182, 5-(((5-fluoro-2,3-dihydrobenzofuran-4-yl)methyl)amino)-8-(1-(2-hydroxyethyl)-1H-pyrazol-4-yl)imidazo[1,2-c]pyrimidine-2-carbonitrile]
23 | < 100 nM | N#Cc1cn2c(NCc3c(F)ccc4c3CCO4)ncc(-c3ccc(C(=O)O)cc3)c2n1 [Example 183, 4-(2-cyano-5-(((5-fluoro-2,3-dihydrobenzofuran-4-yl)methyl)amino)imidazo[1,2-c]pyrimidin-8-yl)benzoic acid]
24 | 100 to 500 nM | Cc1cc(S(=O)(=O)C(F)(F)F)ccc1-c1cnc(NCc2c(F)ccc3c2CCO3)n2cc(C#N)nc12 [Example 184, 5-(((5-fluoro-2,3-dihydrobenzofuran-4-yl)methyl)amino)-8-(2-methyl-4-((trifluoromethyl)sulfonyl)phenyl)imidazo[1,2-c]pyrimidine-2-carbonitrile]
25 | < 100 nM | CNCc1ccc(-c2cnc(NCc3c(F)ccc4c3CCO4)n3cc(C#N)nc23)cc1 [Example 185, 5-(((5-fluoro-2,3-dihydrobenzofuran-4-yl)methyl)amino)-8-(4-((methylamino)methyl)phenyl)imidazo[1,2-c]pyrimidine-2-carbonitrile]
26 | < 100 nM | CNC(=O)c1ccc(-c2cnc(NCc3c(F)ccc4c3CCO4)n3cc(C#N)nc23)cc1 [Example 186, 4-(2-cyano-5-(((5-fluoro-2,3-dihydrobenzofuran-4-yl)methyl)amino)imidazo[1,2-c]pyrimidin-8-yl)-N-methylbenzamide]
27 | < 100 nM | N#Cc1cn2c(NCc3c(F)ccc4c3CCO4)ncc(-c3ccccc3C#N)c2n1 [Example 187, 8-(2-cyanophenyl)-5-(((5-fluoro-2,3-dihydrobenzofuran-4-yl)methyl)amino)imidazo[1,2-c]pyrimidine-2-carbonitrile]
28 | 100 to 500 nM | N#Cc1cc(-c2cnc(NCc3c(F)ccc4c3CCO4)n3cc(C#N)nc23)ccn1 [Example 188, 8-(2-cyanopyridin-4-yl)-5-(((5-fluoro-2,3-dihydrobenzofuran-4-yl)methyl)amino)imidazo[1,2-c]pyrimidine-2-carbonitrile]
29 | 100 to 500 nM | CN(C)CCOc1ccc(-c2cnc(NCc3c(F)ccc4c3CCO4)n3cc(C#N)nc23)cc1 [Example 189, 8-(4-(2-(dimethylamino)ethoxy)phenyl)-5-(((5-fluoro-2,3-dihydrobenzofuran-4-yl)methyl)amino)imidazo[1,2-c]pyrimidine-2-carbonitrile]

Row | Compound | IC50
30 | CCOP(=O)(OCC)c1ccc(-c2cnc(NCc3c(F)ccc4c3CCO4)n3cc(C#N)nc23)cc1 [Example 164, diethyl (4-(2-cyano-5-(((5-fluoro-2,3-dihydrobenzofuran-4-yl)methyl)amino)imidazo[1,2-c]pyrimidin-8-yl)phenyl)phosphonate] | < 100 nM
